Where “and” joins values, the source holds several entries; their conditions need not be identical. Equal entries are not always repeated.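 Exposure lasted 48 hours, with cells grown in 96-well plates and compounds tested at five concentrations. GI50: concentration for 50% inhibition of growth. TGI: concentration producing complete growth inhibition.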
How the values were obtained:
Test in all cases: growth of human tumour cells (NCI), 48 h
A498 renal = system: A498 renal
HL-60(TB) leukemia = system: HL-60(TB) leukemia
KM12 colon = system: KM12 colon
LOX IMVI melanoma = system: LOX IMVI melanoma
M14 melanoma = system: M14 melanoma
MCF7 breast = system: MCF7 breast
NCI/ADR-RES ovarian = system: NCI/ADR-RES ovarian
SF-268 CNS = system: SF-268 CNS
SK-MEL-28 melanoma = system: SK-MEL-28 melanoma
U251 CNS = system: U251 CNS

| Structure (SMILES) | GI50 (A498 renal) | TGI (A498 renal) | GI50 (HL-60(TB) leukemia) | TGI (HL-60(TB) leukemia) | GI50 (KM12 colon) | TGI (KM12 colon) | GI50 (LOX IMVI melanoma) | TGI (LOX IMVI melanoma) | GI50 (M14 melanoma) | TGI (M14 melanoma) | GI50 (MCF7 breast) | TGI (MCF7 breast) | GI50 (NCI/ADR-RES ovarian) | TGI (NCI/ADR-RES ovarian) | GI50 (SF-268 CNS) | TGI (SF-268 CNS) | GI50 (SK-MEL-28 melanoma) | TGI (SK-MEL-28 melanoma) | GI50 (U251 CNS) | TGI (U251 CNS) |
| --- | --- | --- | --- | --- | --- | --- | --- | --- | --- | --- | --- | --- | --- | --- | --- | --- | --- | --- | --- | --- |
| CCOC(=O)Cc1csc(NC(=O)COC(=O)c2ccc(OC)cc2)n1 | > 100 µM | > 100 µM | 0.407 µM | 2.63 µM | > 83.6 µM | > 100 µM | 11.1 µM | > 37.5 µM | > 100 µM | > 100 µM | 64.2 µM | > 100 µM | > 100 µM | > 100 µM | 16.6 µM | 40.9 µM | > 100 µM | > 100 µM | 43.3 µM | > 100 µM |
| Oc1ccc(Cl)cc1-c1cc(-c2ccc(F)cc2)n[nH]1 | 2.21 µM | 6.85 µM | 3.6 µM | 21.5 µM | 1.01 µM | 2.54 µM | 1.51 µM | 3.55 µM | 3.5 µM | 17.2 µM | 0.395 µM | 14.1 µM | 2.19 µM | 6.98 µM | 2.66 µM | 11.4 µM | 8.35 µM | > 100 µM | 2.1 µM | 5 µM |
| O=C(Nc1cc(-c2cccnc2)nc(NCCCN2CCOCC2)n1)c1cc(Br)cc(C(F)(F)F)c1 | 3.43 µM | 13.4 µM | 2.15 µM | 5.86 µM | 3.62 µM | 13.6 µM | 1.62 µM | 3.06 µM | 1.67 µM | 3.32 µM | 2.17 µM | 9.22 µM | 2.6 µM | 9.11 µM | 2.63 µM | 10.4 µM | 1.73 µM | 3.48 µM | 2.05 µM | 4.3 µM |
| O=C1c2ccccc2-c2c1c1ccccc1c(=O)n2-c1ccccc1 | – | 60.7 µM | – | > 86.3 µM | – | > 100 µM | – | > 100 µM | – | > 100 µM | – | > 100 µM | – | 40.8 µM | – | 52.7 µM | – | > 100 µM | – | 39.9 µM |
| N#Cc1c2c(c(-c3cccs3)n(C3OC(CO)C(O)C(O)C3O)c1=S)CCc1ccccc1-2 (centres undefined) | 5.6 µM and 15.7 µM | > 100 µM | – | > 84.7 µM | – | > 100 µM | – | > 100 µM | > 100 µM | > 100 µM | – | > 100 µM | 13.4 µM and 39.5 µM | > 100 µM | > 100 µM | > 100 µM | – | > 100 µM | – | > 100 µM |
| COc1cc([C@@H]2c3cc4c(cc3C(OC3O[C@@H]5COC(C)O[C@H]5[C@H](O)[C@H]3O)C3COC(=O)[C@@H]32)OCO4)cc(OC)c1O (some centres undefined) | 0.605 µM | 14 µM | 0.182 µM | 1.53 µM | 2.46 µM | > 24.4 µM | 0.444 µM | 13.7 µM | 1.37 µM | 7.83 µM | 0.254 µM | > 50 µM | 15.4 µM | > 50 µM | 1.22 µM | 15.4 µM | 2.12 µM | > 34.6 µM | 0.667 µM | 14.9 µM |
| COc1cccc(C2=C(c3cn(C)c4cccc(OC)c34)C(=O)NC2=O)c1 | 4.9 µM | > 25 µM | 9.75 µM | > 25 µM | 6.01 µM | > 25 µM | 17.1 µM | > 25 µM | 7.98 µM | > 25 µM | 6.99 µM | > 25 µM | 5.28 µM | > 25 µM | 16.4 µM | > 25 µM | > 19.1 µM | > 25 µM | 11.5 µM | > 25 µM |
| COc1cc(-c2nn(-c3ccc(NC(=O)c4cc(Cl)cc(Cl)c4)cc3)cc2-c2ccncc2)ccc1Cl | > 100 µM | > 100 µM | 5.82 µM | > 100 µM | 3.27 µM | > 100 µM | 3.09 µM | > 100 µM | 7.39 µM | > 100 µM | > 100 µM | > 100 µM | > 100 µM | > 100 µM | > 100 µM | > 100 µM | > 100 µM | > 100 µM | 6.23 µM | > 100 µM |
| Oc1c(CN2CCOCC2)cc(COCc2ccccc2)c2cccnc12 | 16.5 µM | > 100 µM | 2.38 µM | 7.32 µM | 3.73 µM | > 100 µM | 1.19 µM | 10.4 µM | 1.59 µM | 7.84 µM | 2.07 µM | > 100 µM | 0.287 µM | 1.88 µM | 1.95 µM | > 100 µM | 2.79 µM | > 100 µM | 2.77 µM | > 100 µM |
| Cc1sc2ncn(Cc3ccc(Cl)c(Cl)c3)c(=O)c2c1C | 35.7 µM | > 100 µM | > 100 µM | > 100 µM | 2.44 µM | 11.7 µM | 25.8 µM | > 100 µM | 24.4 µM | 64 µM | 25.6 µM | > 100 µM | 27.5 µM | > 100 µM | 25.5 µM | > 100 µM | 77.9 µM | > 100 µM | 27.6 µM | > 100 µM |
| c1ccc2nc(OCCN3CC3)ccc2c1 | 14.2 µM | 30 µM | 6.59 µM | 34.9 µM | 4.37 µM | 16.5 µM | 4.05 µM | > 100 µM | 8.15 µM | 23.9 µM | 3.4 µM | 11.4 µM | 18.1 µM | 44.5 µM | 16 µM | 35.5 µM | 14.5 µM | 29.2 µM | 5.2 µM | 18.9 µM |
| O=C(Nc1ccc(I)cc1F)c1cc(I)ccc1O | 0.324 µM | 1.24 µM | 0.517 µM | 1.66 µM | 1.01 µM | 3.85 µM | 0.38 µM | 1.67 µM | 0.773 µM | 3.75 µM | 1.55 µM | 9.28 µM | 0.791 µM | 3.85 µM | 0.704 µM | > 100 µM | 0.435 µM | 2.84 µM | 0.661 µM | > 100 µM |
| ClCC#CCSc1ncnc2c1ncn2CC#CCCl | 1.75 µM | 4.75 µM | 1.99 µM | 5.73 µM | 1.39 µM | 2.8 µM | 0.503 µM | 2 µM | 1.47 µM | 3.13 µM | 1.18 µM | 3.62 µM | 1.77 µM | 4.92 µM | 1.33 µM | 3.09 µM | 1.61 µM | 3.14 µM | 1.32 µM | 3.04 µM |
| CC(=O)N1CCN(CCOc2ccc(C3CCN(C4=Nn5c(nnc5C(F)(F)F)CC4)CC3)cc2)CC1 | 12.8 µM | > 89.8 µM | 4.41 µM | 99.4 µM | 31.5 µM | > 100 µM | 11.4 µM | > 100 µM | 11.1 µM | > 100 µM | 4.3 µM | > 100 µM | 37 µM | > 100 µM | 77.9 µM | > 100 µM | 21.4 µM | > 100 µM | 47.9 µM | > 100 µM |
| O=C(CCl)Nc1cc(O)c2c(c1)C(=O)c1cccc(O)c1C2=O | 3.17 µM | 36.6 µM | 2.44 µM | 6.08 µM | 1.74 µM | 3.4 µM | 0.166 µM | 0.623 µM | 1.25 µM | 3.45 µM | 0.725 µM | 2.61 µM | 2.47 µM | > 29.2 µM | 1.69 µM | 3.9 µM | 2.79 µM | 8.95 µM | 1.63 µM | 3.18 µM |

From PubChem BioAssay (NCI)
